Where “and” joins values, the source holds several entries; their conditions need not be identical. Equal entries are not always repeated.
What was measured:
[1] = tested on: many strains of Acinetobacter baumannii; settings: with MEM; cited from earlier work
[2] = tested on: Pseudomonas aeruginosa ST773; experiment: MIC determination, fixed concentration of sBLI (Examples 19-26); format: cell-based; settings: NDM-1, OXA-395, PDC-16, caMHB
Procedure: (§1) Antimicrobial susceptibility testing (AST) by broth microdilution (MIC determination) was performed according to The European Committee on Antimicrobial Susceptibility Testing (EUCAST) guidelines (see Reading guide for broth microdilution Version 5.0, 2024: https://www.eucast.org).
(§2) For combinations containing meropenem as the antibiotic, Sensititre™ FINMER meropenem 64-0.03 μg/mL plates (Thermo Fischer Diagnostics custom plates; YFINMER) were used in most of the experiments. For other antibiotics (and for meropenem whenever a higher start concentration than 64 μg/mL was needed) sterile clear round bottom polystyrene (non-treated) 96-well microplates (Corning 3788) were used for making serial two-fold dilutions of the antibiotic in cation-adjusted Mueller Hinton II broth (caMHB; Thermo Scientific, T3462, containing 29.4 μM Zn^2+ or MILLIPORE, 90922-500G, containing 5.6 μM Zn^2+), across the columns of the microtiter plate (128-0.06 μg/mL; columns 1-12).
The checkerboard plates were all modified by adding a serine β-lactamase inhibitor (sBLI) at a fixed concentration of 16 μg/mL. Additionally, the zinc chelator was added at various fixed concentrations. Samples were mixed so that all plates contained a control containing antibiotic alone (no sBLI, no zinc chelator), a sample containing antibiotic and sBLI (double combination; no zinc chelator), and a sample containing antibiotic, sBLI and zinc chelator (triple combination). All test wells used in each plate contained growth medium (caMHB), and inoculated bacteria at a final inoculum between 3-7×10^5 CFU/mL. […] Synergy for the triple combination (antibiotic, sBLI, and zinc chelator) was defined as when the MIC in any of the rows containing the zinc chelator in combination with antibiotic and sBLI (triple combination), was lower than for antibiotic alone and lower than for the antibiotic and sBLI double combination.
An X in rows 1~4 in the table indicates growth of the bacterial inoculum, while a blank cell indicates no growth. Concentrations (μg/mL) of MEM are given in row 0. TAZ and the zinc chelator were added in fixed concentrations (TAZ at 16 μg/mL in rows 2-4, zinc chelator at 16 μg/mL in row 3 and at 8 μg/mL in row 4). As a control, the effect of MEM alone was tested (row 1). All wells contained bacterial growth medium (caMHB, 29.4 μM Zn^2+) and were inoculated with the test bacterium. The grey cells indicate the meropenem MIC.
An X in rows 1~4 in the table indicates growth of the bacterial inoculum, while a blank cell indicates no growth. Concentrations (μg/mL) of AZT are given in row 0. AVI and the zinc chelator were added in fixed concentrations (AVI at 16 μg/mL in rows 2-4, zinc chelator at 16 μg/mL in row 3 and at 8 μg/mL in row 4). As a control, the effect of AZT alone was tested (row 1). All wells contained bacterial growth medium (caMHB, 29.4 μM Zn^2+) and were inoculated with the test bacterium. The grey cells indicate the aztreonam MIC.
Two technical replicates were performed for each sample. An X in rows 1-8 in the table indicates growth of the bacterial inoculum, while a blank cell indicates no growth. Concentrations (μg/mL) of PIP are given in row 0. AVI and the zinc chelator were added in fixed concentrations (AVI at 16 μg/mL in rows 3-8, zinc chelator at 16 μg/mL in rows 5-6 and at 8 μg/mL in rows 7-8). As a control, the effect of PIP alone was tested (rows 1-2). All wells contained bacterial growth medium (caMHB, 29.4 μM Zn^2+) and were inoculated with the test bacterium. The grey cells indicate the piperacillin MIC.
An X in rows 1~4 in the table indicates growth of the bacterial inoculum, while a blank cell indicates no growth. Concentrations (μg/mL) of PIP are given in row 0. TAZ and the zinc chelator were added in fixed concentrations (TAZ at 16 μg/mL in rows 2-4, zinc chelator at 16 μg/mL in row 3 and at 8 μg/mL in row 4). As a control, the effect of PIP alone was tested (row 1). […]

[3] = tested on: certain strains of Pseudomonas aeruginosa; settings: with MEM; cited from earlier work
[4] = tested on: bacteria which rely on SBLs; settings: with MEM; cited from earlier work
[5] = tested on: Klebsiella pneumoniae K66-45; experiment: MIC determination, fixed concentration of sBLI (Examples 8-9); format: cell-based; settings: Example 9; with PIP and TAZ 16 μg/mL; NDM-1; caMHB, 29.4 μM Zn2+
Procedure: as §1, §2
The checkerboard plates were all modified by adding a serine β-lactamase inhibitor (sBLI) at a fixed concentration of 16 μg/mL. Additionally, the zinc chelator was added at various fixed concentrations. […]

CN(C[C@H](O)[C@@H](O)[C@H](O)[C@H](O)CO)C(=O)c1ccc(CN(Cc2ccccn2)Cc2ccccn2)nc1 [zinc chelator]
effect of combination [1]: poor effect | Synergy with the zinc chelator observed at concentration ([2]; Example 19, with MEM and TAZ 16 μg/mL, 29.4 μM Zn2+): 16 µg/mL | Synergy with the zinc chelator observed at concentration ([2]; Example 20, with AZT and AVI 16 μg/mL, 29.4 μM Zn2+): 16 µg/mL | Synergy with the zinc chelator observed at concentration ([2]; Example 21, with PIP and AVI 16 μg/mL, 29.4 μM Zn2+, 8 μg/mL for one replicate only, other replicate not interpretable): 16 µg/mL and 8 µg/mL | Synergy with the zinc chelator observed at concentration ([2]; Example 22, with PIP and TAZ 16 μg/mL, 29.4 μM Zn2+): 16 µg/mL | Synergy with the zinc chelator observed at concentration ([2]; Example 24, with MEM and TAZ 16 μg/mL, 5.6 μM Zn2+, 16 and 4 μg/ml not interpretable according to EUCAST): 8 µg/mL | Synergy with the zinc chelator observed at concentration ([2]; Example 26, with PIP and TAZ 16 μg/mL, 5.6 μM Zn2+, 16 μg/mL not interpretable according to EUCAST): 8 µg/mL and 4 µg/mL | effect of combination [3]: poor effect | effect of combination [4]: no effect | Synergy with the zinc chelator observed at concentration [5]: 16 µg/mL
